In patent publication US20220050096A1, “ANALYTE-SENSITIVE PROBES AND CONTACT LENS FOR DIAGNOSIS OF OCULAR PATHOLOGIES” (University Of Maryland, Baltimore, priority 2020, published 2022):

Tests used:
[1] = Sodium binding affinity (mid-point of response) and sodium-dependent intensity of probes bound to contact lenses; conditions: lens not named; read-out: binding constant after addition of linker, hydrophobic moiety and/or binding to the lenses
Method: Fluorescence Spectroscopic Measurements. Fluorescence intensities and intensity decays were measured using a Varian™ Eclipse 4 spectrofluorometer and a FluoTime300 instrument from PicoQuant™ (Berlin, Germany) and analyzed with the EasyTau™ software. The excitation source was a 473 nm laser diode with a repetition rate of 40 MHZ and a pulse width less than 100 ps. In other embodiments, the excitation source for SG-PL was at 495 nm from a Solea™ supercontinuum laser (PicoQuant™, Germany) and a 375 nm laser diode (PDL 375, PicoQuant™), a repetition rate of 40 MHz, and a pulse width less than 100 ps. Some intensity and lifetime measurements for SG-PL (as indicated) were performed using Alba V confocal fluorescence lifetime microscopy, FLIM (ISS, Urbana, Ill.), with excitation source of a 473 nm laser diode with a repetition rate of 40 MHz and a pulse width near 250 ps.
Sodium Binding Affinity. The sodium affinity of the labeled lenses can be described in terms of the dissociation constant. The dissociation reaction for the probe complexed with Na+ can be written as
P—Na^+↔P+Na^+ (equation 4) […]
Binding affinity curves of SG-PL with sodium in Biofinity™ and MyDay™ lenses were produced by plotting the normalized intensities with respect to the added sodium concentrations. The curves were measured by intensities at peak maximum (FIG. 38A) or amplitude-weighted lifetimes (FIG. 38B). […]

[2] = Chloride quenching (Stern-Volmer) of SPQ-C18 in contact lenses; assay type: physicochemical
Method: Quenching by Chloride. […] The intensities (I) and lifetimes (6) are analyzed using the Stern-Volmer equation, where F0 and τ0 are the intensities and lifetimes in the absence of chloride, and K is the quenching constant and the inverse of the [Cl^-] needed for 50% quenching. For collisional quenching, the value of F0/F and τ0/τ are typically the same. In solution, in the absence of lenses, the value of K=kq τ0 can be used to calculate the biomolecular quenching constant kq and the quenching efficiency. In the lenses, the [Cl-] may not be the same as in the bulk solution, but kq in the lenses is estimated by assuming the same concentration of chloride around the SPQ moiety in the lenses and in bulk solutions. Chloride-sensitive lenses were prepared using SPQ-C18. The quinolinium moiety in SPQ-C18 can be used for chloride sensing in tears. Its unquenched lifetime near 18.5 ns (see Table 14 and Table 15, below) which results in significant changes up to chloride concentrations of 220 mM, which is well above the physiological range. BiofinityTM and […] lenses labeled with SPQ-C18 were both found to display significant quenching at physiological concentrations of chloride near 120 mM. The emission intensities of SPQ-C18 were quenched by about 50% at this chloride concentration (FIG. 31 and FIG. 32). The emission spectra are not changed by quenching so intensity-based sensing may be different in a realworld application. […] Chloride quenching was analyzed using the Stern-Volmer equation for intensities and lifetimes (equations 7 and 8). In this analysis, we used the average lifetimes (equation 2) that is more appropriate for quenching. […] In contrast quenching of SP-PL, both intensity and lifetime, continue to decrease as the chloride concentration is increased. At the molecular level, the most interesting term is the biomolecular quenching constant kq. This value can be understood by comparison with quenching of a fluorophore in solution without any steric barriers. […] This approach for SPQ-C18 in lenses is shown in both intensities and amplitude-weighted lifetimes (FIG. 35A and FIG. 35B). […] This behavior is different from SG-PL where the binding site can be saturated at high Na^+ concentrations. In contrast, quenching of OD-MQB, both intensity and lifetime, continue to decrease as the chloride concentration increased. The steady-state intensities and intensity decays can be used to calculate the bimolecular quenching constant kq. This value can be interpreted by comparison with quenching of a fluorophore in solution without any steric barriers. […] This is the same structure of SPQ-C18 but with a shorter, three carbon propenyl chain. The unquenched lifetime (τ0) of P-MQB was 26 ns, and the Stern-Volmer constant K was 140 M^-1. […] Emission spectra and time-dependent decays were obtained (data not shown). Stern-Volmer plots were obtained in water and in a Stenfilcon A (AspireTM) contact lens by plotting the normalized intensities with respect to the added chloride concentrations.

[3] = Stenfilcon A (Aspire™) contact lens

SMILES	Kd [1] [mM]	reduction of quenching constant, in lens versus SPQ-C3 in buffer [2] [fold]	k (bimolecular quenching constant) ([2]; Biofinity)	quenching constant K from lifetime measurement ([2]; Biofinity) [M⁻¹]	k (bimolecular quenching constant) ([2]; MyDay)	quenching constant K from lifetime measurement ([2]; MyDay) [M⁻¹]	bimolecular quenching constant [2, 3] [M⁻¹ s⁻¹]	decrease in the collision rate versus SPQ-C3 in water [2, 3]	quenching of emission intensities ([2]; chloride near 120 mM, Biofinity and MyDay)	unquenched lifetime ([2]; in lenses) [ns]
COc1cc(N2CCOCCOCCN(c3cc(OC)c(NC(=O)c4ccc(-c5c6cc(Cl)c(=O)cc-6oc6cc([O-])c(Cl)cc56)c(C(=O)[O-])c4)cc3OC)CCOCC2)c(OC)cc1NC(=O)c1ccc(-c2c3cc(Cl)c(=O)cc-3oc3cc([O-])c(Cl)cc23)c(C(=O)[O-])c1.C[N+](C)(C)C.C[N+](C)(C)C.C[N+](C)(C)C.C[N+](C)(C)C [SG]	~100	–	–	–	–	–	–	–	–	–
CCCCCCCCCCCCCCCCCC[n+]1cccc2cc(OC)ccc21 [SPQ-C18, N-Octadecyl-6-methoxyquinolinium bromide]	–	10	0.41×10^9 m-1 sec-1	8.12	0.37×10^9 m-1 sec-1	7.44	1e+09	5.4	about 50%	~18.5
